Results on one compound are retold here after patent EP0430045B1, “Ascorbic acid tocopheryl phosphate diesters for inhibition of Maillard's reaction” (Senju Pharmaceutical Co., Ltd., priority 1989, dated 1991).

Broadly, the inhibition is the drop in the measured response relative to a control, in per cent.

The assay addresses T1, bovine serum albumine (Bos taurus, UniProt P02769).
T1 construct: purchased Sigma A-8022
The assay is described as follows: Inhibition of furosine formation (non-enzymatic glycosylation of BSA by glucose, Maillard's reaction), furosine determined by HPLC. Type of assay: biochemical. Particulars: inhibition rate of furosine formation; 5 mM test compound, 20 mg/ml BSA, 50 mM glucose, 50 mM phosphate buffer pH 7.3, 4 weeks at 37 °C. On the procedure:
Sample solutions as shown below were aseptically prepared from bovine serum albumine (No. A-8022, Sigma)(hereinafter referred to as BSA), 50 mM phosphate buffer solution (PH 7.3) and the test compound and aminoguanidine.
Normal sample; 20 mg/ml BSA in buffer solution Control sample: 20 mg/ml BSA and 50 mM glucose in buffer solution Test sample; 20 mg/ml BSA, 50 mM glucose and 5 mM test compound in buffer solution The sample solutions were kept for 4 weeks at 37 °C, and the amount of furosine which was formed by non-enzymatic glycosylation was determined by HPLC according to the method of Schleicher et al. [J. Clin. Biochem., 19:81-87 (1981).] Thus, the sample solutions after reaction were dialyzed, and aliquots of 1 ml were lyophylized and then hydrolyzed by the addition of 1 ml of 6 N hydrochloric acid followed by heating at 100 °C for 20 hours. After removal of hydrochloric acid by evaporation, 1 ml of water was added to each sample, and the samples were subjected to filtration using a filter with the pore size of 0.45 »m. The filtrate was used as the sample for HPLC. […] The absorbance peak whose ratio of peak area at […] was 3.9/1 was regarded as the peak corresponding to furosine.
Upon the area of the peak of furosine of each sample, the inhibition rate of furosine formation by the test compound was calculated as follows. […]

T1 sequence (P02769 25-607): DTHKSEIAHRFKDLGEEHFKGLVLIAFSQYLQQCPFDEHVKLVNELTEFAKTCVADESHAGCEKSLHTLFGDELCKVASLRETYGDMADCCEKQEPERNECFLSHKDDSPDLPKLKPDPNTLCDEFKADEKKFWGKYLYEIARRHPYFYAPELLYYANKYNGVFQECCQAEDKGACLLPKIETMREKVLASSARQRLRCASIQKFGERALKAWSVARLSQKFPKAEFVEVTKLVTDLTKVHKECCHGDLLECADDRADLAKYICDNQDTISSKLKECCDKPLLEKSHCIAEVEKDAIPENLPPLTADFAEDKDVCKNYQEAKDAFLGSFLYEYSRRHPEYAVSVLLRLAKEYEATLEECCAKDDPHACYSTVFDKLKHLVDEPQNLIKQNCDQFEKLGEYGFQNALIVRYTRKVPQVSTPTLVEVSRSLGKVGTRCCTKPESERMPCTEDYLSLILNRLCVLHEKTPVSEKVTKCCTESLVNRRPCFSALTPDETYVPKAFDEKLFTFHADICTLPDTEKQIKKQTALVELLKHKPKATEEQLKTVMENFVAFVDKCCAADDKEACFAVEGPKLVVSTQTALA

For `N=C(N)NN` [Aminoguanidine], the inhibition at 5000 µM came to 7.5%.
